Assay results as given in ChEMBL document CHEMBL3045018, “Comparative QSTR study of saturated alcohols based on topological, constitutional, geometrical, and getaway descriptors” (Med Chem Res, 2009).

These molecules were tested on Tetrahymena pyriformis (assay: Toxicity in Tetrahymena pyriformis). Conditions: in vivo.

SMILES | pGI50
CC(C)CO [ISOBUTANOL] | 1.3724
CC(C)CCO [3-METHYLBUTANOL] | 1.0359
OCCCl [2-CHLOROETHANOL] | 1.5343
CC(O)CCl (stereo not given) | 1.2446
CCC(C)O (stereo not given) [BUTANOL] | 1.542
CCC(C)(C)O [AMYLENE HYDRATE] | 1.1729
CCCO [PROPANOL] | 1.7464
CCCC(C)O (stereo not given) [2-PENTANOL] | 1.1596
CCCCO [BUTYL ALCOHOL] | 1.4306
CO [METHYL ALCOHOL] | 2.6656
CCO [ALCOHOL] | 1.9912
OCCCCl [3-Chloropropanol] | 1.1622
CCC(O)CC [3-PENTANOL] | 1.2437
CC(C)O [ISOPROPYL ALCOHOL] | 1.8819
CC(C)(C)O [TERT-BUTANOL] | 1.7911
